Laboratory results reported in patent US20180353443A1, “CURCUMIN-BASED COMPOSITIONS & METHODS OF USE THEREOF” (priority 2015, published 2018).

How the values were obtained:
Format in all cases: cell-based
[1] = system: NFkB-p65 serine 276 phosphorylation; experiment: Western blot of NFkB-p65 phosphorylated at serine 276 in BV2 cells; conditions: 22.0 μg/ml curcuminoid, LPS induction, FIGS. 6 and 7
Protocol: (§1) Western blot analysis was performed in multiple varying formats before optimization was achieved. The BV2 microglia cell line was cultured in Dulbecco's Modified Eagle's Medium (DMEM)—complete medium. The complete medium consisted of DMEM, 1% Ampicillin, and 10% Fetal Bovine Serum (FBS). BV2 microglia cells, at a cell count of approximately 2×10^6, were seeded in each well (6 wells per plate) with 2.0 ml complete medium and cultured overnight in a ThermaForma HepaFilter Series II Co2 Incubator at 37° Celsius. Upon establishing confluence, subconfluent cells were washed out and the wells were prepared with drug pre-treatment after overnight incubation.
(§2) The test drugs (curcuminoids) were procured as follows: curcumin I research standard (03926) (ChromaDex Irvine, Calif. USA) (97.7% purity); curcumin II research standard (04230) (ChromaDex Irvine, Calif. USA) (97.3%); curcumin III research standard (B6938) (Sigma-Aldrich St. Louis, Mo., USA) (97.7% purity); curcumin extract (curcumin I—77.7%, curcumin II—16.9%, curcumin III—0.9%) research standard (03928) (ChromaDex Irvine, Calif. USA) (95.3% purity); and Lipopolysaccharide (LPS) from E. Coli (L2630) (Sigma-Aldrich St. Louis, Mo., USA).
(§3) Curcuminoids are not soluble in aqueous medium due to their hydrophobic characteristic. However, curcuminoid extracts are soluble in polar organic solvents, such as DMSO and acetone. In this Example, each curcuminoid preparation was first dissolved in DMSO. DMSO was used in the drug preparation at 0.2%. The drug/DMSO solution was subsequently dissolved in DMEM to achieve a final drug concentration for each curcuminoid preparation tested—22.0 μg/ml curcuminoid. […]
(§4) Total protein concentration for each fraction was determined using a Bio Rad Protein Assay that is based on the Bradford Assay (dye-binding method). […]
(§5) The targets analyzed in the Western Blot included NFkB-p65 and its nucleocytoplasmic translocation, as well as kinases (including MSK1) and their covalent modifications upstream of and involved in the regulation of NFkB. […]

[2] = system: NFkB-p65; experiment: Western blot of cytoplasmic and nuclear NFkB-p65 (nucleotranslocation) in BV2 cells; conditions: 22.0 μg/ml curcuminoid, LPS induction, FIGS. 4 and 5
Protocol: as §1, §2, §3, §4, §5

[3] = system: miRNA148a; experiment: RT qPCR of miRNA148a levels in BV2 cells; conditions: 22 μg/ml curcuminoid, 30 min pre-treatment, with or without LPS, FIG. 3
Protocol: Reverse transcriptase (RT) quantitative PCR (RT qPCR) was performed to measure miRNA 148a levels in cells that were treated with curcumin I, II, or III, or a control. More particularly, six-well plates were seeded with BV2 cells at a concentration of about 1.5×10^6 BV2 cells per well. Drug (curcumin I, II, or III) treatment was carried out in the same manner as was executed for the western blot experimentation described in Example 3 below. Ten wells were prepared and, upon confluence, the next day the drug treatment was designed to evaluate basal influence of curcumin extract, curcumin I, curcumin II, curcumin III, as well as each curcumin drug with LPS stimulation. After 30 minutes of incubation with the drug treatment, LPS was used to induce the cells in each well labelled to be induced by LPS.
RNA was ultimately extracted from the cells to determine the levels of miRNA148a. A Qiagen miRNeasy Mini Kit (Cat. No. 217004) was used to extract total RNA along with miRNA. The miRNA was reverse transcribed to cDNA using a gene-specific RT primer and the miScript II RT Kit by Qiagen (Cat. No. 218161). An miRNA148a primer assay was acquired from Qiagen (Cat. No. 00003556). […]

[4] = system: MSK1 serine 376 phosphorylation; experiment: Western blot of MSK1 phosphorylated at serine 376 in BV2 cells; conditions: 22.0 μg/ml curcuminoid, LPS induction, FIGS. 10 and 11
Protocol: as §1, with “incubation. […]” for “incubation.”
as §4, §5

[5] = system: MSK1; experiment: Western blot of cytoplasmic and nuclear MSK1 protein levels in BV2 cells; conditions: 22.0 μg/ml curcuminoid, LPS induction
Protocol: as §1, with “incubation. […]” for “incubation.”
as §4, §5

Row | Structure (SMILES) | inhibition of NFkB-p65 serine 276 phosphorylation [1] | inhibition of NFkB-p65 nucleotranslocation (cytosolic and nuclear NFkB-p65) [2] | effect on miRNA148a levels [3] | inhibition of MSK1 serine 376 phosphorylation [4] | effect on MSK1 protein levels in the cytoplasm ([5]; FIG. 8) | effect on MSK1 protein levels in the nucleus ([5]; FIG. 9)
1 | COc1cc(/C=C/C(=O)/C=C(O)/C=C/c2ccc(O)c(OC)c2)ccc1O [curcumin I, (1E,6E)-1,7-Bis(4-hydroxy-3-methoxyphenyl)-1,6-heptadiene-3,5-dione] | moderately inhibit | not significantly inhibited |  |  |  | 
2 | COc1cc(/C=C/C(=O)CC(=O)/C=C/c2ccc(O)cc2)ccc1O [curcumin II, (1E,6E)-1-(4-Hydroxy-3-methoxyphenyl)-7-(4-hydroxyphenyl)hepta-1,6-diene-3,5-dione] | moderately inhibit | not significantly inhibited | inhibits | inhibit |  | 
3 | O=C(/C=C/c1ccc(O)cc1)CC(=O)/C=C/c1ccc(O)cc1 [curcumin III, (1E,6E)-1,7-bis(4-hydroxyphenyl)hepta-1,6-diene-3,5-dione] | moderately inhibit | not significantly inhibited | significantly increase | inhibition | significantly inhibited and downregulated | significantly inhibited and downregulated
